Experimental findings from US7141564B2, “Nitrogen-containing bicyclic heterocycles for use as antibacterials” (priority 2001, dated 2006) are described below.

The assay in a line: MIC of test compounds against various organisms. It counts as cell-based.
The mark [1] stands for this setting: versus all these organisms (panel of 10 strains), read-out: MIC.

Structures can show the parent of a compound that is named as a salt. Where two headings read alike, the source gives them in different places. Some results are limits rather than exact numbers.

What is called MIC is the smallest concentration in the dilution series that meets the test's criterion for growth inhibition. Take `COc1ccc2nccc(NC(=O)[C@H]3CC[C@H](NCc4cc5c(cn4)OCCO5)CC3)c2n1` [Example 19, Trans-4-[(2,3-Dihydro-[1,4]dioxino[2,3-c]pyridin-7-ylmethyl)-amino]-cyclohexanecarboxylic acid (6-methoxy-[1,5]naphthyridin-4-yl)-amide oxalate salt]: the minimum inhibitory concentration (MIC) under setting [1] is ≤ 4 µg/mL. As to `COc1ccc2nccc(C(=O)C[C@H]3CC[C@H](NCc4ccc5c(c4)OCCO5)CC3)c2c1` [Example 27, Trans-2-{4-[(2,3-Dihydro-benzo[1,4]dioxin-6-ylmethyl)-amino]-cyclohexyl}-1-(6-methoxy-quinolin-4-yl)-ethanone oxalate salt], the MIC under setting [1] is ≤ 64 µg/mL. Consider `NCCCOc1ccc2nccc(NC(=O)[C@H]3CC[C@H](NCc4ccc5c(c4)OCCO5)CC3)c2n1` [Example 29, Trans-4-[(2,3-Dihydro-benzo[1,4]dioxin-6-ylmethyl)-amino]-cyclohexanecarboxylic acid [6-(3-amino-propoxy)-[1,5]naphthyridin-4-yl]-amide dioxalate], for which the MIC under setting [1] was ≤ 16 µg/mL. `COc1cc(F)c2nccc(NC(=O)[C@H]3CC[C@H](NCc4ccc5c(c4)NC(=O)CS5)CC3)c2c1` [Example 30, Trans-4-[(3-Oxo-3,4-dihydro-2-H-benzo[1,4]thiazin-6-ylmethyl)amino]-cyclohexanecarboxylic acid (8-fluoro-6-methoxy-quinolin-4-yl)-amide oxalate]: under setting [1], the minimum inhibitory concentration (MIC) was ≤ 4 µg/mL.

Turning to `COc1ccc2nccc(NC(=O)[C@H]3CC[C@H](NCc4ccc5nsnc5c4)CC3)c2c1` [Example 12, Trans-4-[(Benzo[1,2,5]thiadiazol-5-ylmethyl)-amino]-cyclohexanecarboxylic acid (6-methoxy-quinolin-4-yl)-amide fumarate salt], the minimum inhibitory concentration (MIC) under setting [1] was ≤ 4 µg/mL. Turning to `COc1ccc2nccc(NC(=O)[C@]3(O)CC[C@@H](NCc4cc5c(cn4)SCC(=O)N5)CC3)c2n1` [Example 302, 1-Hydroxy-t-4-[(2-oxo-2,3-dihydro-1H-pyrido[3,4-b][1,4]thiazin-7-ylmethyl)-amino]-r-cyclohexanecarboxylic Acid (6-methoxy-[1,5]naphthyridin-4-yl)-amide Dihydrochloride], the MIC under setting [1] is ≤ 4 µg/mL. For the compound `COc1cc(F)c2nccc(NC(=O)[C@H]3CC[C@H](NCc4ccc5c(c4)OCCO5)CC3)c2c1` [Example 10, Trans-4-[(2,3-Dihydro-benzo[1,4]dioxin-6-ylmethyl)-amino]-cyclohexanecarboxylic acid (8-fluoro-6-methoxy-quinolin-4-yl)-amide Fumarate Salt], the MIC under setting [1] is ≤ 16 µg/mL. For `COc1ccc2nccc(NC(=O)[C@H]3CC[C@H](NCc4cnc5scnc5c4)CC3)c2n1` [Example 16, Trans-4-[(Thiazolo[5,4-b]-pyridin-6-ylmethyl)-amino]-cyclohexanecarboxylic acid (6-methoxy-[1,5]naphthyridin-4-yl)-amide oxalate salt], the minimal inhibitory concentration (MIC) under setting [1] is ≤ 16 µg/mL.

As for `COc1ccc2nccc(NC(=O)[C@H]3CC[C@H](NCc4cc5c(cc4[N+](=O)[O-])OCO5)CC3)c2n1.O=C(O)C(=O)O` [Example 23, Trans-4-[(6-Nitro-benzo[1,3]dioxol-5-ylmethyl)-amino]-cyclohexanecarboxylic acid (6-methoxy-[1,5]naphthyridin-4-yl)-amide oxalate salt], the MIC under setting [1] is ≤ 4 µg/mL. Consider `COc1ccc2nccc(C(O)C[C@H]3CC[C@H](NCc4ccc5c(c4)OCCO5)CC3)c2c1` (stereo partly drawn) [Example 22, Trans-2-{4-[(2,3-Dihydro-benzo[1,4]dioxin-6-ylmethyl)-amino]-cyclohexyl}-1-(6-methoxy-quinolin-4-yl)-ethanol oxalate salt], for which the minimum inhibitory concentration (MIC) under setting [1] is ≤ 16 µg/mL. On the same count and under the same terms, with `COc1ccc2nccc(NC(=O)[C@H]3CC[C@H](NCc4cc5c(cc4N)OCO5)CC3)c2n1` [Example 24, Trans-4-[(6-Amino-benzo[1,3]dioxol-5-ylmethyl)-amino]-cyclohexanecarboxylic acid (6-methoxy-[1,5]naphthyridin-4-yl)-amide dioxalate salt] the figure was ≤ 16 µg/mL; with `COc1ccc2nccc(NC(=O)[C@H]3CC[C@H](NCc4cc(N)c5c(c4)NC(=O)CO5)CC3)c2n1` [Example 36, Trans-4-[(8-Amino-3-oxo-3,4-dihydro-2H-benzo[1,4]oxazin-6-ylmethyl)-amino]-cyclohexanecarboxylic acid (6-methoxy)-[1,5]naphthyridin-4-yl)-amide Oxalate], ≤ 64 µg/mL. Same read-out and setting: with `COc1ccc2nccc(NC(=O)[C@H]3CC[C@H](NCc4ccc5snnc5c4)CC3)c2n1` [Example 6, Trans-4-[(Benzo[1,2,3]thiadiazol-5-ylmethyl)-amino]-cyclohexanecarboxylic acid (6-methoxy-[1,5]naphthyridin-4-yl)-amide fumarate salt] the figure was ≤ 4 µg/mL. Regarding `COc1ccc2nccc(NC(=O)[C@H]3CC[C@H](NCc4ccc5c(n4)NC(=O)CO5)CC3)c2n1` [Example 31, Trans-4-[(3-Oxo-3,4-dihydro-2H-pyrido[3,2-b][1,4]oxazin-6-ylmethyl)-amino]-cyclohexanecarboxylic acid (6-methoxy-[1,5]naphthyridin-4-yl)-amide oxalate], the MIC under setting [1] was ≤ 4 µg/mL. For `COc1ccc2nccc(C(O)C[C@H]3CC[C@H](NCc4ccc5c(c4)NC(=O)CS5)CC3)c2c1` (stereo partly drawn) [Example 21, Trans-6-({4-[2-Hydroxy-2-(6-methoxy-quinolin-4-yl)-ethyl]-cyclohexylamino}-methyl)-4-H-benzo[1,4]thiazin-3-one oxalate salt], the minimal inhibitory concentration (MIC) under setting [1] was ≤ 4 µg/mL.

For `COc1ccc2nccc(NC(=O)C3=CCC(N(CC(=O)O)Cc4ccc5c(c4)NC(=O)CS5)CC3)c2n1` (racemic) [Example 156, (R/S)-4-[Carboxymethyl-(3-oxo-3,4-dihydro-2H-benzo[1,4]thiazin-6-ylmethyl)-amino]-cyclohex-1-enecarboxylic Acid (6-methoxy-[1,5]naphthyridin-4-yl)-amide Bis(trifluoroacetate) Salt], the minimum inhibitory concentration (MIC) was ≤ 16 µg/mL. For `COc1ccc2nccc(NC(=O)[C@]3(O)CC[C@@H](NCc4ccc5c(n4)NC(=O)CS5)CC3)c2c1` [Example 391, 1-Hydroxy-t-4-[(3-oxo-3,4-dihydro-2H-pyrido[3,2-b][1,4]thiazin-6-ylmethyl)-amino-r-cyclohexanecarboxylic acid (6-methoxy-quinolin-4-yl)-amidedihydrochloride], under setting [1], the MIC is ≤ 4 µg/mL. `COc1ccc2nccc(NC(=O)[C@H]3CC[C@H](NCc4cnc5c(c4)NC(=O)CS5)CC3)c2n1` [Example 13, Trans-4-[(2-Oxo-2,3-dihydro-1H-pyrido[2,3-b][1,4]thiazin-7-ylmethyl)-amino]-cyclohexanecarboxylic Acid (6-methoxy-[1,5]naphthyridin-4-yl)-amide oxalate salt]: the minimum inhibitory concentration (MIC) under setting [1] was ≤ 4 µg/mL. As for `COc1ccc2nccc(NC(=O)[C@H]3CC[C@H](NCc4ccc5c(n4)OCCO5)CC3)c2n1` [Example 18, Trans-4-[(2,3-Dihydro-[1,4]dioxino[2,3-b]pyridin-6-ylmethyl)-amino]-cyclohexanecarboxylic acid (6-methoxy-[1,5]naphthyridin-4-yl)-amide oxalate salt], the minimal inhibitory concentration (MIC) under setting [1] is ≤ 64 µg/mL. The same measure, in the same setting: the value for `COc1ccc2nccc(NC(=O)[C@H]3CC[C@H](NCc4ccc5c(c4)oc(=O)n5C)CC3)c2n1` [Example 7, Trans-4-[(3-Methyl-2-oxo-2,3-dihydro-benzooxazol-6-ylmethyl)-amino]-cyclohexanecarboxylic acid (6-methoxy-[1,5]naphthyridin-4-yl)-amide oxalate salt] was ≤ 64 µg/mL; that for `COc1ccc2nccc(NC(=O)[C@H]3CC[C@H](NCc4cnc5snnc5c4)CC3)c2n1` [Example 32, Trans-4-[([1,2,3]Thiadiazolo[5,4-b]pyridin-6-ylmethyl)-amino]-cyclohexanecarboxylic acid (6-methoxy-[1,5]naphthyridin-4-yl)-amide oxalate] was ≤ 4 µg/mL; that for `COc1ccc2nccc(NC(=O)[C@H]3CC[C@H](NCc4ccc5scnc5c4)CC3)c2n1` [Example 25, Trans-4-[(Benzothiazol-5-ylmethyl)-amino]cyclohexanecarboxylic acid(6-methoxy-[1,5]naphthyridine-4-yl)amide oxalate salt] was ≤ 64 µg/mL. For the compound `COc1ccc2nccc(NC(=O)[C@]3(O)CC[C@@H](NCc4ccc5c(n4)NC(=O)CS5)CC3)c2n1` [Example 301, 1-Hydroxy-t-4-[(3-oxo-3,4-dihydro-2H-pyrido[3,2-b][1,4]thiazin-6-ylmethyl)-amino]-r-cyclohexanecarboxylic Acid (6-methoxy-[1,5]naphthyridin-4-yl)-amide Dihydrochloride], the MIC under setting [1] is ≤ 4 µg/mL. On to `COc1ccc2nccc(NC(=O)C3=CCC(NCc4cnc5c(c4)NC(=O)CS5)CC3)c2n1` (racemic) [Example 153, (R/S)-4-[(2-Oxo-2,3-dihydro-1H-pyrido[2,3-b][1,4]thiazin-7-ylmethyl)-amino]-cyclohex-1-ene carboxylic acid (6-methoxy-[1,5]naphthyridin-4-yl)-amide oxalate], for which, under setting [1], the MIC is ≤ 4 µg/mL. With `COc1ccc2nccc(NC(=O)[C@H]3CC[C@H](NCc4cc5cccc(O)c5c(=O)[nH]4)CC3)c2n1` [Example 17, Trans-4-[(8-Hydroxy-1-oxo-1,2-dihydro-isoquinolin-3-ylmethyl)-amino]-cyclohexanecarboxylic acid (6-methoxy-[1,5]naphthyridin-4-yl)-amide dihydrochloride salt], the MIC under setting [1] was ≤ 16 µg/mL. Regarding `COc1ccc2nccc(NC(=O)[C@H]3CC[C@H](NCc4cnc5c(c4)NC(=O)CS5)CC3)c2c1` [Example 14, Trans-4-[(2-Oxo-2,3-dihydro-1H-pyrido[2,3-b][1,4]thiazin-7-ylmethyl)-amino]-cyclohexanecarboxylic acid (6-methoxy-quinolin-4-yl)-amide oxalate salt], the MIC under setting [1] was ≤ 16 µg/mL. On to `COc1ccc2nccc(NC(=O)[C@H]3CC[C@H](NCc4ccc5nsnc5c4)CC3)c2n1` [Example 2, Trans-4-[(Benzo[1,2,5]thiadiazol-5-ylmethyl)-amino]-cyclohexanecarboxylic acid (6-methoxy-[1,5]naphthyridin-4-yl)-amide fumarate salt], for which, under setting [1], the MIC was ≤ 4 µg/mL.
